In one experiment the target is HDAC1 (Homo sapiens (Human), UniProt Q13547). The conditions noted are these: read-out: HDAC1 IC50.
For the next experiment, the target named is HDAC5 (Homo sapiens (Human), UniProt Q9UQL6). The conditions noted are these: read-out: HDAC5 IC50.
HDAC5, sequence (Q9UQL6 656-1122): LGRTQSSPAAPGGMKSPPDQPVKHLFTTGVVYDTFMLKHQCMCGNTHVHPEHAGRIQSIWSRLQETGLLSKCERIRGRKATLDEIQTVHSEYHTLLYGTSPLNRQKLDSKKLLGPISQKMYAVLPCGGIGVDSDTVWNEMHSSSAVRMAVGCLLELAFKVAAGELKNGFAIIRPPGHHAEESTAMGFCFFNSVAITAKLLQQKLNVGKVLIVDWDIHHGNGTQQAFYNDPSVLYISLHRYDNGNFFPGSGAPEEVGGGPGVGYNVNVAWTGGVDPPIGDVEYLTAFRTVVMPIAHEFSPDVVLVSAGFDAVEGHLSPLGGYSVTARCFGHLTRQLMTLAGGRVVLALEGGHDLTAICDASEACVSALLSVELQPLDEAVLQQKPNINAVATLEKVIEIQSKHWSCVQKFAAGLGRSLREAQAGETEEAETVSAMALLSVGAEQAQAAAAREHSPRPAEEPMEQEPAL

HDAC1, sequence (Q13547 whole entry): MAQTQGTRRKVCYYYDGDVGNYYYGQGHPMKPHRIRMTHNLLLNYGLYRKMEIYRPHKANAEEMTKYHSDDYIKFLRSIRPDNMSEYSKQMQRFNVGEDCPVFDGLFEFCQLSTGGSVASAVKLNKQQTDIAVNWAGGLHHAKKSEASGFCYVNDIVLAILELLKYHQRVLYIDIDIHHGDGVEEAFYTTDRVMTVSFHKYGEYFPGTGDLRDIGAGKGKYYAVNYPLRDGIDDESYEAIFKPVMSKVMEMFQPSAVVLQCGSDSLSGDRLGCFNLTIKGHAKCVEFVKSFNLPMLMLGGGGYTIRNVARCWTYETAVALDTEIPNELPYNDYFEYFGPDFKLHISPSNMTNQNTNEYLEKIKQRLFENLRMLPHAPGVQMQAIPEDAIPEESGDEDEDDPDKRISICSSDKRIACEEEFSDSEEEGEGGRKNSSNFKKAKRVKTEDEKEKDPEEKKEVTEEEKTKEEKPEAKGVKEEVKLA

In general, IC50 refers to the concentration that gives 50% inhibition. Regarding `Fc1cc(COc2ccc3cccc(F)c3n2)ccc1-c1noc(C(F)(F)F)n1` [Example 282, 8-fluoro-2-({3-fluoro-4-[5-(trifluoromethyl)-1,2,4-oxadiazol-3-yl]phenyl}methoxy)quinoline], the IC50 was 720 nM on HDAC1 and 7 nM on HDAC5.
`Fc1cc(F)c(OCc2ccc(-c3noc(C(F)(F)F)n3)c(F)c2)cn1` [Example 283, 2,4-difluoro-5-({3-fluoro-4-[5-(trifluoromethyl)-1,2,4-oxadiazol-3-yl]phenyl}methoxy)pyridine]: the IC50 stood at 45000 nM on HDAC1 and 75 nM at HDAC5.
On to `CNC(=O)c1ccccc1OCc1ccc(-c2noc(C(F)(F)F)n2)c(F)c1` [Example 284, 2-({3-fluoro-4-[5-(trifluoromethyl)-1,2,4-oxadiazol-3-yl]phenyl}methoxy)-N-methylbenzamide], for which the IC50 on HDAC1 came to 2200 nM; on HDAC5, 260 nM.
The matching figures for `Fc1cc(COc2ccc3cncnc3c2)ccc1-c1noc(C(F)(F)F)n1` [Example 285, 7-({3-fluoro-4-[5-(trifluoromethyl)-1,2,4-oxadiazol-3-yl]phenyl}methoxy)quinazoline]: 3400 nM and 280 nM.
In the case of `Fc1cc(COc2cccc(Cl)n2)ccc1-c1noc(C(F)(F)F)n1` [Example 286, 2-chloro-6-({3-fluoro-4-[5-(trifluoromethyl)-1,2,4-oxadiazol-3-yl]phenyl}methoxy)pyridine], the IC50 at HDAC1 turned out to be 2700 nM; at HDAC5, 50 nM.
The matching figures for `Fc1cc(COc2cncc(Cl)c2)ccc1-c1noc(C(F)(F)F)n1` [Example 287, 3-chloro-5-({3-fluoro-4-[5-(trifluoromethyl)-1,2,4-oxadiazol-3-yl]phenyl}methoxy)pyridine]: 1800 nM and 150 nM.
On to `Fc1cc(COc2ccc(Cl)nc2)ccc1-c1noc(C(F)(F)F)n1` [Example 288, 2-chloro-5-({3-fluoro-4-[5-(trifluoromethyl)-1,2,4-oxadiazol-3-yl]phenyl}methoxy)pyridine], for which the IC50 on HDAC1 turned out to be 45000 nM; on HDAC5, 280 nM.
The matching figures for `Cn1ccc(COc2nccc(-c3noc(C(F)(F)F)n3)c2Cl)n1` [Example 289, 3-chloro-2-[(1-methyl-1H-pyrazol-3-yl)methoxy]-4-[5-(trifluoromethyl)-1,2,4-oxadiazol-3-yl]pyridine]: 8400 nM and 680 nM.
In the case of `Cc1cnc(COc2nccc(-c3noc(C(F)(F)F)n3)c2Cl)cn1` [Example 290, 2-[({3-chloro-4-[5-(trifluoromethyl)-1,2,4-oxadiazol-3-yl]pyridin-2-yl}oxy)methyl]-5-methylpyrazine], the IC50 on HDAC1 came to 8100 nM; on HDAC5, 660 nM.
Regarding `Fc1cccnc1COc1nccc(-c2noc(C(F)(F)F)n2)c1Cl` [Example 291, 3-chloro-2-[(3-fluoropyridin-2-yl)methoxy]-4-[5-(trifluoromethyl)-1,2,4-oxadiazol-3-yl]pyridine], the IC50 on HDAC1 came out at 9300 nM; on HDAC5, 190 nM.
The corresponding values for `Cc1ncc(COc2nccc(-c3noc(C(F)(F)F)n3)c2Cl)c(C)n1` [Example 292, 5-[({3-chloro-4-[5-(trifluoromethyl)-1,2,4-oxadiazol-3-yl]pyridin-2-yl}oxy)methyl]-2,4-dimethylpyrimidine] are 6500 nM and 540 nM.
The corresponding values for `Cn1cc(COc2nccc(-c3noc(C(F)(F)F)n3)c2Cl)nn1` [Example 293, 3-chloro-2-[(1-methyl-1H-1,2,3-triazol-4-yl)methoxy]-4-[5-(trifluoromethyl)-1,2,4-oxadiazol-3-yl]pyridine] are 4500 nM and 510 nM.
The matching figures for `FC(F)(F)c1nc(-c2ccnc(OCc3nccnc3Cl)c2Cl)no1` [Example 294, 2-chloro-3-[({3-chloro-4-[5-(trifluoromethyl)-1,2,4-oxadiazol-3-yl]pyridin-2-yl}oxy)methyl]pyrazine]: 12000 nM and 410 nM.
With `FC(F)(F)c1nc(-c2ccnc(OCc3ncccc3Cl)c2Cl)no1` [Example 295, 3-chloro-2-[(3-chloropyridin-2-yl)methoxy]-4-[5-(trifluoromethyl)-1,2,4-oxadiazol-3-yl]pyridine], the results for the IC50 at HDAC1 and on HDAC5 were 17000 nM and 500 nM, respectively.
`FC(F)(F)c1nc(-c2ccc(COc3nc(C4CC4)no3)nc2)no1` [Example 296, 2-{[(3-cyclopropyl-1,2,4-oxadiazol-5-yl)oxy]methyl}-5-[5-(trifluoromethyl)-1,2,4-oxadiazol-3-yl]pyridine]: the IC50 on HDAC1 was determined as 3700 nM; on HDAC5, 49 nM.
For the compound `FC(F)(F)c1nc(-c2ccc(COc3cccc4[nH]nnc34)nc2)no1` [Example 297, 4-({5-[5-(trifluoromethyl)-1,2,4-oxadiazol-3-yl]pyridin-2-yl}methoxy)-1H-benzotriazole], the concentration for half-maximal inhibition (IC50) on HDAC1 was found to be 310 nM; at HDAC5, 51 nM.
The matching figures for `FC(F)(F)c1nc(-c2ccc(COc3nncc4ccccc34)nc2)no1` [Example 298, 1-({5-[5-(trifluoromethyl)-1,2,4-oxadiazol-3-yl]pyridin-2-yl}methoxy)phthalazine]: 1000 nM and 290 nM.
Regarding `O=C1NCCc2c(OCc3ccc(-c4noc(C(F)(F)F)n4)cn3)cccc21` [Example 299, 5-({5-[5-(trifluoromethyl)-1,2,4-oxadiazol-3-yl]pyridin-2-yl}methoxy)-3,4-dihydroisoquinolin-1(2H)-one], the IC50 at HDAC1 was determined as 1300 nM; on HDAC5, 800 nM.
As for `O=c1ccc2cnccc2n1Cc1ccc(-c2noc(C(F)(F)F)n2)cn1` [Example 301, 1-({5-[5-(trifluoromethyl)-1,2,4-oxadiazol-3-yl]pyridin-2-yl}methyl)-1,6-naphthyridin-2(1H)-one], the IC50 on HDAC1 stood at 280 nM; on HDAC5 it was 37 nM.
The matching figures for `FC(F)(F)c1nc(-c2ccc(COc3nccc4nccn34)nc2)no1` [Example 303, 5-({5-[5-(trifluoromethyl)-1,2,4-oxadiazol-3-yl]pyridin-2-yl}methoxy)imidazo[1,2-c]pyrimidine]: 990 nM and 170 nM.
For the compound `Cn1c(OCc2ccc(-c3noc(C(F)(F)F)n3)cn2)nc2cccnc21` [Example 304, 3-methyl-2-({5-[5-(trifluoromethyl)-1,2,4-oxadiazol-3-yl]pyridin-2-yl}methoxy)-3H-imidazo[4,5-b]pyridine], the 50% inhibitory concentration (IC50) on HDAC1 amounted to 250 nM; at HDAC5 it was 79 nM.
For `FC(F)(F)c1nc(-c2ccc(COc3ccc4ncnn4c3)nc2)no1` [Example 305, 6-({5-[5-(trifluoromethyl)-1,2,4-oxadiazol-3-yl]pyridin-2-yl}methoxy)[1,2,4]triazolo[1,5-a]pyridine], the figures for the IC50 on HDAC1 and on HDAC5 were 2400 nM and 1700 nM, respectively.
The corresponding values for `FC(F)c1cc(OCc2ccc(-c3noc(C(F)(F)F)n3)cn2)ncn1` [Example 306, 4-(difluoromethyl)-6-({5-[5-(trifluoromethyl)-1,2,4-oxadiazol-3-yl]pyridin-2-yl}methoxy)pyrimidine] are 1300 nM and 220 nM.
`Cc1cncnc1OCc1ccc(-c2noc(C(F)(F)F)n2)cn1` [Example 307, 5-methyl-4-({5-[5-(trifluoromethyl)-1,2,4-oxadiazol-3-yl]pyridin-2-yl}methoxy)pyrimidine]: the IC50 at HDAC1 worked out at 2200 nM; on HDAC5, 620 nM.
The corresponding values for `COc1ncccc1OCc1ccc(-c2noc(C(F)(F)F)n2)cn1` [Example 308, 2-methoxy-3-({5-[5-(trifluoromethyl)-1,2,4-oxadiazol-3-yl]pyridin-2-yl}methoxy)pyridine] are 740 nM and 310 nM.
The matching figures for `FC(F)(F)c1nc(-c2ccc(COc3cc(Cl)ncn3)nc2)no1` [Example 309, 4-chloro-6-({5-[5-(trifluoromethyl)-1,2,4-oxadiazol-3-yl]pyridin-2-yl}methoxy)pyrimidine]: 4200 nM and 450 nM.
In the case of `FC(F)(F)c1nc(-c2ccc(COc3ccc(Cl)nc3)nc2)no1` [Example 310, 2-chloro-5-({5-[5-(trifluoromethyl)-1,2,4-oxadiazol-3-yl]pyridin-2-yl}methoxy)pyridine], the IC50 at HDAC1 is 2400 nM; on HDAC5, 770 nM.
In the case of `FC(F)(F)c1nc(-c2ccc(COc3ccc4cnccc4n3)nc2)no1` [Example 311, 2-({5-[5-(trifluoromethyl)-1,2,4-oxadiazol-3-yl]pyridin-2-yl}methoxy)-1,6-naphthyridine], the values for the IC50 at HDAC1 and on HDAC5 were 880 nM and 540 nM, respectively.
The corresponding values for `CC1(C)COCCN1C(=O)[C@@H]1CCC(=O)N1c1ccc(-c2noc(C(F)(F)F)n2)c(F)c1` [Example 344, (5S)-5-[(3,3-dimethylmorpholin-4-yl)carbonyl]-1-{3-fluoro-4-[5-(trifluoromethyl)-1,2,4-oxadiazol-3-yl]phenyl}pyrrolidin-2-one] are 45000 nM and 1900 nM.
The corresponding values for `CC1(C)C(=O)NCCN1C(=O)[C@@H]1CCC(=O)N1c1ccc(-c2noc(C(F)(F)F)n2)c(F)c1` [Example 345, 4-(1-{3-fluoro-4-[5-(trifluoromethyl)-1,2,4-oxadiazol-3-yl]phenyl}-5-oxo-L-prolyl)-3,3-dimethylpiperazin-2-one] are 43000 nM and 1500 nM.
The corresponding values for `CCS(=O)(=O)N(Cc1ccc(-c2noc(C(F)(F)F)n2)cc1)c1cccc(C(F)(F)F)c1` [Example 491, N-({4-[5-(trifluoromethyl)-1,2,4-oxadiazol-3-yl]phenyl}methyl)-N-[3-(trifluoromethyl)phenyl]ethanesulfonamide] are 820 nM and 140 nM.

(Values after patent publication US11066396B2 (priority 2016, dated 2021).)
